Reference: paper PMC12909347, “Disconnect between in vitro and in vivo efficacy of the MPS1 inhibitor NTRC 0066-0 against glioblastoma” (Cellular Oncology, 2026)

Legend:
[1] = system: MPS1; design: method as in PMID 23940287; details: reported; cited from earlier work
[2] = system: orthotopic E98 GBM tumors; test: Orthotopic E98 GBM xenograft efficacy in Abcb1a/b;Abcg2-/- mice; format: in vivo; details: TMZ + RT given at tumor size 10^7-10^8 p/s
Method: Orthotopic GBM tumors were induced in Abcb1a/b; Abcg2^−/− mice by stereotactic injection of E98 cells expressing firefly luciferase (200,000 cells in 2 µL HBSS (Life Technologies) at an injection speed of 1 µL/min) at 2 mm lateral, 1 mm anterior and 3 mm ventral to the bregma. Tumor growth was monitored using bioluminescence imaging by injecting D-luciferin (150 mg/kg i.p.; Promega, Madison, WI) and subsequently imaging mice on an IVIS Spectrum Imaging System (PerkinElmer, Waltham, MA). Survival was monitored daily and the humane endpoint was defined as body weight loss exceeding 20%. Time-to-recurrence was defined as the number of days elapsed until the tumor regained its pre-treatment size. Tumors were treated with CT-guided radiotherapy (2–3.5 Gy per fraction) using an X-RAD 225Cx system (Precision X-Ray, North Branford, CT), temozolomide (10 mg/kg p.o. freshly prepared from powder in an aqueous solution containing 10% v/v ethanol), NTRC0066-0 (20, 10 or 5 mg/kg p.o. in an aqueous solution containing 10% v/v DMSO and 10% v/v Cremophor EL (Life Technologies)) or different combinations thereof, as described per experiment in the Figure legends.

Compound: COc1cc(N2CCC(O)CC2)ccc1Nc1nc(Nc2ccccc2S(=O)(=O)C(C)C)c2[nH]cnc2n1 [MPS1-IN-3]
- IC50s (intrinsic potency) [1]: micromolar range

Compound: Cn1nnc2c(C(N)=O)ncn2c1=O [TMZ, temozolomide, reference compound]
- Tumor bioluminescence signal after regression [2]: about 10^5 p/s
